# Reference: ChEMBL document CHEMBL1201862, “PubChem BioAssay data set” (2004)
#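 All cell lines were grown in 96-well plates and treated with compound for 48 hours. At the GI50, growth is halved.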 Activity calls are given as the source filed them. No stated cut-off is given here; in the data, active = GI50 up to about 1.1 µM and inactive = higher.
# How the values were obtained:
# Assay in all cases: inhibition of tumour cell growth, NCI panel, 48 h
# K562 = system: K562
# COLO 205 = system: COLO 205
# NCI-H522 = system: NCI-H522
# CCRF-CEM = system: CCRF-CEM
# OVCAR-8 = system: OVCAR-8
# SW-620 = system: SW-620
# SN12C = system: SN12C
# M14 = system: M14
# SF-295 = system: SF-295
# UACC-257 = system: UACC-257
# ACHN = system: ACHN
# SK-MEL-5 = system: SK-MEL-5
# 786-0 = system: 786-0
# TK-10 = system: TK-10
# MDA-MB-435 = system: MDA-MB-435
# SF-539 = system: SF-539
# MCF7 = system: MCF7
# SR = system: SR
# SNB-75 = system: SNB-75
# SNB-19 = system: SNB-19
# HCT-15 = system: HCT-15
# SK-OV-3 = system: SK-OV-3
# SF-268 = system: SF-268
# NCI-H226 = system: NCI-H226
# RPMI-8226 = system: RPMI-8226
# OVCAR-3 = system: OVCAR-3
# DU-145 = system: DU-145
# CAKI-1 = system: CAKI-1
# A498 = system: A498
# HCT-116 = system: HCT-116
# PC-3 = system: PC-3
# SK-MEL-28 = system: SK-MEL-28
# LOX IMVI = system: LOX IMVI
# U-251 = system: U-251
# NCI/ADR-RES = system: NCI/ADR-RES
# RXF 393 = system: RXF 393
# HCC 2998 = system: HCC 2998
# UO-31 = system: UO-31
# BT-549 = system: BT-549
# MOLT-4 = system: MOLT-4
# HOP-62 = system: HOP-62
# IGROV-1 = system: IGROV-1
# Hs-578T = system: Hs-578T
# NCI-H23 = system: NCI-H23
# A549 = system: A549
# UACC-62 = system: UACC-62
# HT-29 = system: HT-29
# KM12 = system: KM12
# MDA-MB-231 = system: MDA-MB-231
# OVCAR-5 = system: OVCAR-5
# NCI-H460 = system: NCI-H460
# HOP-92 = system: HOP-92
# T47D = system: T47D
# MDA-N = system: MDA-N
# SK-MEL-2 = system: SK-MEL-2
# EKVX = system: EKVX
smiles,measurement,setting,value
Nc1ccc(-c2ncc3cc(-c4cccc(-c5cc6cnc(-c7ccc(N)cc7)nc6c6ccccc56)c4)c4ccccc4c3n2)cc1,GI50,K562,> 100 µM (inactive)
same,GI50,COLO 205,35.3 µM (inactive)
same,GI50,NCI-H522,> 100 µM (inactive)
same,GI50,CCRF-CEM,> 100 µM (inactive)
same,GI50,OVCAR-8,> 100 µM (inactive)
same,GI50,SW-620,> 100 µM (inactive)
same,GI50,SN12C,> 100 µM (inactive)
same,GI50,M14,60.1 µM (inactive)
same,GI50,SF-295,> 100 µM (inactive)
same,GI50,UACC-257,> 100 µM (inactive)
same,GI50,ACHN,> 100 µM (inactive)
same,GI50,SK-MEL-5,34.5 µM (inactive)
same,GI50,786-0,> 100 µM (inactive)
same,GI50,TK-10,> 100 µM (inactive)
same,GI50,MDA-MB-435,> 100 µM (inactive)
same,GI50,SF-539,> 100 µM (inactive)
same,GI50,MCF7,> 100 µM (inactive)
same,GI50,SR,> 100 µM (inactive)
same,GI50,SNB-75,> 100 µM (inactive)
same,GI50,SNB-19,> 100 µM (inactive)
same,GI50,HCT-15,> 100 µM
same,GI50,SK-OV-3,> 100 µM (inactive)
same,GI50,SF-268,> 100 µM (inactive)
same,GI50,NCI-H226,> 100 µM (inactive)
same,GI50,RPMI-8226,> 100 µM (inactive)
same,GI50,OVCAR-3,> 100 µM (inactive)
same,GI50,DU-145,> 100 µM (inactive)
same,GI50,CAKI-1,> 100 µM (inactive)
same,GI50,A498,> 100 µM (inactive)
same,GI50,HCT-116,> 100 µM (inactive)
same,GI50,PC-3,> 100 µM (inactive)
same,GI50,SK-MEL-28,> 100 µM (inactive)
same,GI50,LOX IMVI,> 100 µM (inactive)
same,GI50,U-251,> 100 µM (inactive)
same,GI50,NCI/ADR-RES,> 100 µM (inactive)
same,GI50,RXF 393,> 100 µM (inactive)
same,GI50,HCC 2998,> 100 µM (inactive)
same,GI50,UO-31,> 100 µM (inactive)
same,GI50,BT-549,> 100 µM (inactive)
same,GI50,MOLT-4,> 100 µM (inactive)
same,GI50,HOP-62,> 100 µM (inactive)
same,GI50,IGROV-1,> 100 µM (inactive)
same,GI50,Hs-578T,> 100 µM (inactive)
same,GI50,NCI-H23,> 100 µM (inactive)
same,GI50,A549,> 100 µM (inactive)
same,GI50,UACC-62,> 100 µM (inactive)
same,GI50,HT-29,> 100 µM (inactive)
same,GI50,KM12,> 100 µM (inactive)
same,GI50,MDA-MB-231,> 100 µM (inactive)
same,GI50,OVCAR-5,> 100 µM (inactive)
same,GI50,NCI-H460,> 100 µM (inactive)
same,GI50,HOP-92,> 100 µM (inactive)
same,GI50,T47D,> 100 µM (inactive)
same,GI50,MDA-N,> 100 µM (inactive)
same,GI50,SK-MEL-2,> 100 µM (inactive)
same,GI50,EKVX,> 100 µM (inactive)
